Data from patent US11241387B2, “Carrier-binding agent compositions and methods of making and using the same” (Mayo Foundation for Medical Education and Research, priority 2015, dated 2022).

How the values were obtained:
[1] = system: A375 human melanoma cells; assay: A375 human melanoma xenograft in athymic nude mice; format: in vivo
Protocol: In vivo experiments were performed at least 2 times. The number of mice required for those experiments was determined by power analysis. Mouse tumors were measured 2-3 times/week and mice were sacrificed when the tumor was 10% by weight. […] The end point of the mouse studies was median survival. Kaplan-Meier curves were generated and Mantle-Cox test was performed to determine significance of median survival between treatment groups. The in vitro results presented are representative of at least 5 repeated experiments. Statistical analyses of in vitro and in vivo percent change from baseline experiments were done using the Student's t-test.
(§1) To test tumor efficacy, 1×10^6 A375 human melanoma cells were implanted into the right flank of athymic nude mice (Harlan Sprague Dawley, Indianapolis, Ind.). […] Tumor size was monitored 3 times/week and tumor volume was calculated with the following equation: (length×width)/2. Mice were sacrificed when the tumor size equaled 10% of the mouse body weight or about 2500 mm^3. The day 7 percent change from baseline was calculated as follows: [(tumor size on treatment day-tumor size on day 7)/tumor size on treatment day]×100.

[2] = target: T1, ABX (Homo sapiens, UniProt P02768); assay: Bio-Layer Interferometry (BLItz) binding of antibody to ABX; settings: pH 3, 5, 7, 9; BEV also RT, 37° C. and 58° C.
T1 construct: purchased Celgene Corporation, Summit, N.J
Protocol: The association and dissociation constants were calculated using the BLItz software.

[3] = target: T2, CD20 (Homo sapiens, UniProt P11836); assay: Blocking of fluorescent anti-CD20 labeling of Daudi cells (flow cytometry); format: binding; settings: Daudi cells pretreated prior to CD20 labeling
T2 construct: host or cells: Daudi B-cell lymphoma cells
T2 sequence (P11836 1-297): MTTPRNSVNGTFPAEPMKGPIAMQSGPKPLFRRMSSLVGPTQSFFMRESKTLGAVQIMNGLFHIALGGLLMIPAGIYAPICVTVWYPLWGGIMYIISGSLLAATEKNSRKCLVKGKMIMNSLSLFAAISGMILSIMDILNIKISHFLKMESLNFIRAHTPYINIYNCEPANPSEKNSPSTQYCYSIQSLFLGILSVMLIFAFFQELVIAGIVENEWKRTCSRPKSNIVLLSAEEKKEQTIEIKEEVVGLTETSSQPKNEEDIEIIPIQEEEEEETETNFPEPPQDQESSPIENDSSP
Source text: FIG. 12 depicts the results of an experiment in which CD20 positive Daudi lymphoma cells were labeled with fluorescent tagged anti-human CD20 or isotype matched control in panels F and A, respectively, and analyzed by flow cytometry.
CD20 positive Daudi lymphoma cells were labeled with fluorescent tagged anti-human CD20 or isotype matched control in panel F and A, respectively, and analyzed by flow cytometry.

[4] = system: Daudi human lymphoma cells; assay: Daudi xenotransplant model in athymic nude mice; format: in vivo; settings: ABX 30 mg/kg, rituximab 12 mg/kg, or AR160
Protocol: as §1

## bevacizumab
[1]; 12 mg/kg dose
  therapeutic effect on tumor volume: not therapeutic
[1]; BEV 12 mg/kg, ABX 30 mg/kg, BEV followed by ABX, or AB160
  median survival: 14 days
[2]
  pH and temperature dependence of binding affinity to ABX: highest binding affinity observed when the particles are formed at pH 5 and 58 °C

## rituximab
[2]
  pH and temperature dependence of binding affinity to ABX: decreased with higher pH
[3]
  blocking of CD20 binding of fluorescent anti-CD20: specifically blocked
[4]
  median survival: 12 days
